Test [1] has as its target T1, human a-thrombin (Homo sapiens, UniProt P00734).
T1 construct: enzyme (human a-thrombin (BioPharm® Lab.)); purchased BioPharm Lab
Kind of test: Enzymatic assay for thrombin (fluorogenic peptide substrate Boc-VPR-AMC). The test is classed as biochemical. Particulars: room temperature, 20 mM Hepes pH 7.4, 20 min. How it is done:
The thrombin assay utilizes a fluorogenic peptide substrate (Boc-VPR-AMC (R&D Systems) and was run at room temperature in an assay buffer containing 20 mM Hepes, pH 7.4, 140 mM NaCl and 0.1% Tween 20. Assay parameters were adjusted such that the assay was linear with respect to time, enzyme, and substrate concentrations. Under these optimized assays conditions, IC50 values were equivalent to Ki values, except in a few cases of “tight binding” inhibitors. Cases of “tight binding” or possible “slow binding” inhibitors were handled by the methods described in Copeland R.A. (2013) Evaluation of Enzyme Inhibitors in Drug Discovery. 2nd Ed. John Wiley and Sons, Inc., Chapters 5-7.
The thrombin assay protocol was carried out as follows. Test compounds were serially diluted in DMSO and then 100 nL of each dilution was transferred to the assay plate(s). 10 μL of Assay Buffer was added, followed by 15 μL of enzyme (human a-thrombin (BioPharm® Lab.)) in assay buffer. 15 μL of substrate in assay buffer was then added and the sample mixed to start the reaction. After 20 min at room temperature, 15 μL of a stop solution (0.1 M acetic acid) was added, the sample was mixed, and the plates were read on a SpectraMax® i3× Microplate Reader with the data exported as Excel files. Each assay plate included a “no inhibitor” (DMSO only) control, a “no enzyme” control, and a reference inhibitor control. % Activity values=100*(ave. test comp. fluorescence−ave. “no enz” fluorescence)/(ave. “DMSO only” fluorescence−ave. “no enz” fluorescence). IC50 and Ki values were very reproducible, with values falling well within +2-fold.

The target in test [2] is T2, MASP-2 (CCP1-CCP2-SP) (Homo sapiens, UniProt O00187).
T2 construct: 15 μL of Enzyme MASP-2 (CCP1-CCP2-SP) in Assay Buffer
Kind of test: Enzymatic assay for MASP-2 inhibitory activity (fluorogenic substrate). In kind it is biochemical. The conditions noted are these: room temperature, 20 mM Hepes pH 7.4, 20 min. How it is done:
The MASP-2 assay utilizes a fluorogenic substrate, based on the cleavage site for its natural substrate C2. The assay was run at room temperature in an assay buffer containing 20 mM HEPES, pH 7.4, 140 mM NaCl and 0.1% Tween 20. Assay parameters were adjusted such that the assay was linear with respect to time, enzyme, and substrate concentrations. Under the optimized assays conditions, IC50 values were equivalent to Ki values, except in the few cases of “tight binding” inhibitors. Cases of “tight binding” or possible “slow binding” inhibitors were handled by the methods described in Copeland R. A. (2013) Evaluation of Enzyme Inhibitors in Drug Discovery. 2nd Ed., John Wiley and Sons, Inc., Chapters 5-7.
The MASP-2 assay protocol was carried out as follows. Test compounds were serially diluted in DMSO and then 100 nL of each dilution was transferred to the assay plate(s). 10 μL of Assay Buffer was added, followed by 15 μL of Enzyme MASP-2 (CCP1-CCP2-SP) in Assay Buffer. 15 μL of Substrate in Assay Buffer was then added and the mixture was mixed to start the reaction. After 20 min at room temperature, 15 μL of a stop solution (0.1 M acetic acid) was added, the sample was mixed, and the plates were read on a SpectraMax i3× Microplate Reader with the data exported as an Excel file. Each assay plate included a “no inhibitor” (DMSO only) control, a “no enzyme” control, and a reference inhibitor control. % Activity values=100*(average test comp. fluorescence−average “no enzyme” fluorescence)/(average “DMSO only” fluorescence−average “no enzyme” fluorescence). IC50 and Ki replicate values were very reproducible, with values well within +2-fold.

Structures can show the parent of a compound that is named as a salt.

T2 sequence (O00187 287-686 limits assumed): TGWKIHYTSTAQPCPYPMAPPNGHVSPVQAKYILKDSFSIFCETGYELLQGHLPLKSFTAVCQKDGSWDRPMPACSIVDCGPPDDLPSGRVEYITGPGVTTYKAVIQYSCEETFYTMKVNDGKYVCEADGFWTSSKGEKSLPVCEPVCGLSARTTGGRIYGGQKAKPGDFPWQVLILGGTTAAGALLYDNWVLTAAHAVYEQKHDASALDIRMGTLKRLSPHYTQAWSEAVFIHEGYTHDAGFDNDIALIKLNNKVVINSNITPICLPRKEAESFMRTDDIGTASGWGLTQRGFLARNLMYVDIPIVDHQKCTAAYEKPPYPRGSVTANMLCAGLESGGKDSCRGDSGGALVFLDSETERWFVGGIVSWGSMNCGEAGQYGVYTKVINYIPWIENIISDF

Regarding `Cc1cc(C)cc(CNc2cnc3n(c2=O)[C@H](C(=O)NCc2cc4c(s2)CNC4)CC3)c1` [Compound 21, (S)—N-((5,6-dihydro-4H-thieno[2,3-c]pyrrol-2-yl)methyl)-3-((3,5-dimethylbenzyl)amino)-4-oxo-4,6,7,8-tetrahydropyrrolo[1,2-a]pyrimidine-6-carboxamide, trifluoroacetate], the Ki was 2500 to 10000 nM in test [1] and under 500 nM in test [2].

Take `Cc1cc(C)cc(CNc2cnc3n(c2=O)[C@H](C(=O)NCc2cccnc2C)CC3)c1` [Compound 23, (S)-3-((3,5-dimethylbenzyl)amino)-N-((2-methylpyridin-3-yl)methyl)-4-oxo-4,6,7,8-tetrahydropyrrolo[1,2-a]pyrimidine-6-carboxamide, trifluoroacetate]: the Ki in test [1] is over 25000 nM; in test [2] it was 2500 to 10000 nM.

On to `Cc1nc(N)ccc1CNC(=O)[C@@H]1CCc2ncc(NCc3cnn(-c4ccccc4)c3)c(=O)n21` [Compound 24, (S)—N-((6-amino-2-methylpyridin-3-yl)methyl)-4-oxo-3-(((1-phenyl-1H-pyrazol-4-yl)methyl)amino)-4,6,7,8-tetrahydropyrrolo[1,2-a]pyrimidine-6-carboxamide, trifluoroacetate], for which the Ki is 10000 to 25000 nM in test [1] and under 500 nM in test [2].

With `CCc1cccc(CNc2cnc3n(c2=O)[C@H](C(=O)NCc2ccc(N)nc2C)CC3)c1` [Compound 26], the Ki was 500 to 2500 nM in test [1] and under 500 nM in test [2].

On to `Cc1nc(N)ccc1CNC(=O)[C@@H]1CCc2ncc(NCc3ccccc3C(F)F)c(=O)n21` [Compound 27, (S)—N-((6-amino-2-methylpyridin-3-yl)methyl)-3-((2-(difluoromethyl)benzyl)amino)-4-oxo-4,6,7,8-tetrahydropyrrolo[1,2-a]pyrimidine-6-carboxamide, di-trifluoroacetate], for which the inhibitory constant (Ki) in test [1] was 500 to 2500 nM; in test [2], under 500 nM.

`Cc1nc(N)ccc1CNC(=O)[C@@H]1CCc2ncc(NCc3cc(F)ccc3F)c(=O)n21` [Compound 28, (S)-N-((6-amino-2-methylpyridin-3-yl)methyl)-3-((2,5-difluorobenzyl)amino)-4-oxo-4,6,7,8-tetrahydropyrrolo[1,2-a]pyrimidine-6-carboxamide, di-trifluoroacetate]: the Ki in test [1] was 500 to 2500 nM; in test [2], under 500 nM.

In the case of `Cc1cc(CNc2cnc3n(c2=O)[C@H](C(=O)NCc2ccc(N)nc2C)CC3)cc(C(F)(F)F)c1` [Compound 29, (S)-N-((6-amino-2-methylpyridin-3-yl)methyl)-3-((3-methyl-5-(trifluoromethyl)benzyl)amino)-4-oxo-4,6,7,8-tetrahydro-pyrrolo[1,2-a]pyrimidine-6-carboxamide, di-trifluoroacetate], the Ki in test [1] is 500 to 2500 nM; in test [2], under 500 nM.

As for `Cc1cccc(CNc2cnc3n(c2=O)[C@H](C(=O)NCc2ccc(N)nc2C)CC3)c1C` [Compound 30, (S)-N-((6-amino-2-methylpyridin-3-yl)methyl)-3-((2,3-dimethylbenzyl)amino)-4-oxo-4,6,7,8-tetrahydropyrrolo[1,2-a]pyrimidine-6-carboxamide, trifluoroacetate], the Ki in test [1] is 500 to 2500 nM; in test [2] it was under 500 nM.

With `Cc1ccc(F)cc1CNc1cnc2n(c1=O)[C@H](C(=O)NCc1ccc(N)nc1C)CC2` [Compound 31, (S)-N-((6-amino-2-methylpyridin-3-yl)methyl)-3-((5-fluoro-2-methylbenzyl)amino)-4-oxo-4,6,7,8-tetrahydropyrrolo[1,2-a]pyrimidine-6-carboxamide, di-trifluoroacetate], the inhibitory constant (Ki) is 500 to 2500 nM in test [1] and under 500 nM in test [2].

As for `Cc1nc(N)ccc1CNC(=O)[C@@H]1CCc2ncc(NCc3c(F)cccc3F)c(=O)n21` [Compound 32, (S)-N-((6-amino-2-methylpyridin-3-yl)methyl)-3-((2,6-difluorobenzyl)amino)-4-oxo-4,6,7,8-tetrahydropyrrolo[1,2-a]pyrimidine-6-carboxamide, di-trifluoroacetate], the inhibitory constant (Ki) in test [1] is 10000 to 25000 nM; in test [2], under 500 nM.

Turning to `Cc1cccc(CNc2cnc3n(c2=O)[C@H](C(=O)NCc2ccc(N)nc2C)CC3)c1F` [Compound 33, (S)-N-((6-amino-2-methylpyridin-3-yl)methyl)-3-((2-fluoro-3-methylbenzyl)amino)-4-oxo-4,6,7,8-tetrahydropyrrolo[1,2-a]pyrimidine-6-carboxamide, di-trifluoroacetate], the inhibitory constant (Ki) was 500 to 2500 nM in test [1] and under 500 nM in test [2].

For the compound `Cc1cc(F)cc(CNc2cnc3n(c2=O)[C@H](C(=O)NCc2ccc(N)nc2C)CC3)c1` [Compound 34, (S)-N-((6-amino-2-methylpyridin-3-yl)methyl)-3-((3-fluoro-5-methylbenzyl)amino)-4-oxo-4,6,7,8-tetrahydropyrrolo[1,2-a]pyrimidine-6-carboxamide, di-trifluoroacetate], the Ki in test [1] and in test [2] was under 500 nM in each case.

For the compound `COc1c(F)cc(F)cc1CNc1cnc2n(c1=O)[C@H](C(=O)NCc1ccc(N)nc1C)CC2` [Compound 35, (S)-N-((6-amino-2-methylpyridin-3-yl)methyl)-3-((3,5-difluoro-2-methoxybenzyl)amino)-4-oxo-4,6,7,8-tetrahydropyrrolo[1,2-a]pyrimidine-6-carboxamide, trifluoroacetate], the results for the Ki in test [1] and in test [2] were 500 to 2500 nM and under 500 nM, respectively.

Take `COc1c(F)ccc(F)c1CNc1cnc2n(c1=O)[C@H](C(=O)NCc1ccc(N)nc1C)CC2` [Compound 36, (S)-N-((6-amino-2-methylpyridin-3-yl)methyl)-3-((3,6-difluoro-2-methoxybenzyl)amino)-4-oxo-4,6,7,8-tetrahydropyrrolo[1,2-a]pyrimidine-6-carboxamide, di-trifluoroacetate]: the Ki was 2500 to 10000 nM in test [1] and under 500 nM in test [2].

In the case of `Cc1nc(N)ccc1CNC(=O)[C@@H]1CCc2ncc(NCc3cccc(OC4CC4)c3)c(=O)n21` [Compound 37, (S)-N-((6-amino-2-methylpyridin-3-yl)methyl)-3-((3-cyclopropoxybenzyl)amino)-4-oxo-4,6,7,8-tetrahydropyrrolo[1,2-a]pyrimidine-6-carboxamide, trifluoroacetate], the Ki in test [1] and in test [2] was under 500 nM throughout.

For `Cc1nc(N)ccc1CNC(=O)[C@@H]1CCc2ncc(NCc3cc(C(F)(F)F)ccc3F)c(=O)n21` [Compound 38, (S)-N-((6-amino-2-methylpyridin-3-yl)methyl)-3-((2-fluoro-5-(trifluoromethyl)benzyl)amino)-4-oxo-4,6,7,8-tetrahydro-pyrrolo[1,2-a]pyrimidine-6-carboxamide, di-trifluoroacetate], the Ki in test [1] was 2500 to 10000 nM; in test [2] it was under 500 nM.

Consider `Cc1nc(N)ccc1CNC(=O)[C@@H]1CCc2ncc(NCc3cccc(OC(F)(F)F)c3F)c(=O)n21` [Compound 39, (S)-N-((6-amino-2-methylpyridin-3-yl)methyl)-3-((2-fluoro-3-(trifluoromethoxy)benzyl)amino)-4-oxo-4,6,7,8-tetrahydro-pyrrolo[1,2-a]pyrimidine-6-carboxamide, di-trifluoroacetate], for which the Ki was 500 to 2500 nM in test [1] and under 500 nM in test [2].

One may read the Ki as a measure of affinity in units of concentration, obtained from inhibition or displacement. Read a low Ki as higher affinity.

The values above are taken from patent US20240228499A1, “MASP-2 INHIBITORS AND METHODS OF USE” (Omeros Corporation, priority 2022, published 2024).
